# In article PMC8498988, “Scaffold Hybridization Strategy Leads to the Discovery of Dopamine D3 Receptor-Selective or Multitarget Bitopic Ligands Potentially Useful for Central Nervous System Disorders” (ACS Chemical Neuroscience, 2021):
# Columns and labels:
# D2R = D2R (Homo sapiens, UniProt P14416); assay: Radioligand competition binding at human D2R ([3H]N-methylspiperone, HEK293 membranes); design: expressed in transfected cells; host or cells: HEK293; conditions: HEK 293 cells expressing hD2R, read-out: Ki ± SEM, D2R
# Description: The novel hybrid derivatives 3–11 were tested at hD2R, hD3R, or hD4R stably expressed in HEK293 cells by competition binding assays, using [^3H]N-methylspiperone as the radioligand, to evaluate their D2-like affinity and subtype selectivity, following the previously reported procedures.[41],[45],[46]
# Binding at dopamine D2-like receptors was determined using previously described methods.[41],[45],[46] Membranes were prepared from HEK293 cells stably expressing human D2, D3, or D4, grown in a 50:50 mix of Dulbecco’s minimal essential medium (DMEM) and Ham’s F12 culture media, supplemented with 20 mM HEPES, 2 mM L-glutamine, 0.1 mM nonessential amino acids, 1× antibiotic/antimycotic, 10% heat-inactivated fetal bovine serum, and 200 μg/mL hygromycin (Life Technologies, Grand Island, NY) and kept in an incubator at 37 °C and 5% CO2. Upon reaching 80–90% confluency, the cells were harvested using premixed Earle’s Balanced Salt Solution (EBSS) with 5 μM EDTA (Life Technologies) and centrifuged at 3000 rpm for 10 min at 21 °C. The supernatant was removed, and the pellet was resuspended in 10 mL hypotonic lysis buffer (5 mM MgCl2, 5 mM Tris, pH 7.4 at 4 °C) and centrifuged at 20,000 rpm for 30 min at 4 °C. The pellet was then resuspended in fresh EBSS buffer made from 8.7 g/L Earle’s Balanced Salts without phenol red (US Biological, Salem, MA), 2.2 g/L sodium bicarbonate, pH to 7.4. A Bradford protein assay (Bio-Rad, Hercules, CA) was used to determine the protein concentration, and membranes were diluted to 500 μg/mL and stored at −80 °C for later use. Radioligand competition binding experiments were conducted using thawed membranes. Test compounds were freshly dissolved in 30% DMSO and 70% H2O to a stock concentration of 100 μM. To assist the solubilization of free-base compounds, 10 μL of glacial acetic acid was added along with DMSO. Each test compound was then diluted into 13 half-log serial dilutions using 30% DMSO vehicle; the final test concentrations ranged from 10 μM to 10 pM. The previously frozen membranes were diluted in fresh EBSS to a 100 μg/mL (for D2 or D3) or 200 μg/mL (D4) stock for binding. Radioligand competition experiments were conducted in glass tubes containing 300 μL of fresh EBSS buffer, 50 μL of diluted test compound, 100 μL of membranes (10 μg of total protein for D2 or D3 and 20 μg of total protein for D4), and 50 μL of [^3H]N-methylspiperone (0.4 nM final concentration; PerkinElmer). Nonspecific binding was determined using 10 μM butaclamol (Sigma-Aldrich, St. Louis, MO), and total binding was determined with the 30% DMSO vehicle. All compound dilutions were tested in triplicate and the reaction was incubated for 1 h at room temperature. The reaction was terminated by filtration through Whatman GF/B filters, presoaked for 1 h in 0.5% polyethylenimine, using a Brandel R48 filtering manifold (Brandel Instruments, Gaithersburg, MD). The filters were washed three times with 3 mL of ice-cold EBSS buffer and transferred to scintillation vials. CytoScint liquid scintillation cocktail (3 mL, MP Biomedicals, Solon, OH) was added, and vials were counted using a PerkinElmer Tri-Carb 2910 TR liquid scintillation counter (Waltham, MA).
# 5-HT2CR = molecular target: T1, 5-HT2CR (Homo sapiens, UniProt P28335); assay: Radioligand binding assay at human 5-HT2CR ([125I]DOI, HEK cells); design: expressed in transfected cells; host or cells: HEK (HEK-h5HT2C); conditions: HEK cells expressing h5-HT2CR, read-out: Ki ± SEM, 5-HT2CR
# T1 sequence (P28335 33-458): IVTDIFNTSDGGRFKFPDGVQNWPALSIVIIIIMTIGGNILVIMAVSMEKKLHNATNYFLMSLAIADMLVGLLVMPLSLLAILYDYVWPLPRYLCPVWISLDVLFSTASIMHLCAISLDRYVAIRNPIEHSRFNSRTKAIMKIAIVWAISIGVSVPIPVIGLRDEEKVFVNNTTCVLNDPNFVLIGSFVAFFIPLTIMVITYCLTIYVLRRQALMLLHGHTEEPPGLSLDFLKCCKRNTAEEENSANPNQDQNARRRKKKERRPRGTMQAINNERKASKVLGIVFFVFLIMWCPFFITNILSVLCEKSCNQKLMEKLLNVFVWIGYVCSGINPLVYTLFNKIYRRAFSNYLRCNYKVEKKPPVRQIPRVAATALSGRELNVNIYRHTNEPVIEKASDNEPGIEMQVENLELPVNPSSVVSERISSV
# Description: Human embryonic kidney cells expressing human 5HT2AR (HEK-h5HT2A) or human 5HT2CR (HEK-h5HT2C) are used. The cells are grown until confluent on 15 cm plates. The medium is removed, and the cells are washed with phosphate-buffered saline (PBS), scraped into 2 mL PBS, and frozen at −20 °C until needed. Cell suspension is thawed, 10 mL assay buffer (50 mM Tris, pH 7.4 at 37 °C, with 0.1% ascorbic acid and 5 mM CaCl2) is added per plate of cells, and polytronned at setting 6 for 5 s. The homogenate is centrifuged at 15,500 rpm for 20 min. To minimize the residual 5HT concentration, the pellet is resuspended in buffer, polytronned, and centrifuged as mentioned above. The final pellet is resuspended in 2 mL buffer/plate of cells. The binding assay includes 50 μL drug, 5-HT or buffer, 50 μL cell homogenate, 50 μL [^125I]DOI (∼0.1 nM), and buffer in a final volume of 250 μL. Specific binding is defined as the difference between total binding and binding in the presence of 10 μM 5HT. The reaction is incubated for 1 h at 37 °C and terminated by filtration through Wallac A filter mats presoaked in 0.05% polyethylenimine using a Tomtec 96-well harvester. The radioactivity remaining on filters is determined using a Wallac betaplate reader.
# D2R, sequence (P14416 whole entry): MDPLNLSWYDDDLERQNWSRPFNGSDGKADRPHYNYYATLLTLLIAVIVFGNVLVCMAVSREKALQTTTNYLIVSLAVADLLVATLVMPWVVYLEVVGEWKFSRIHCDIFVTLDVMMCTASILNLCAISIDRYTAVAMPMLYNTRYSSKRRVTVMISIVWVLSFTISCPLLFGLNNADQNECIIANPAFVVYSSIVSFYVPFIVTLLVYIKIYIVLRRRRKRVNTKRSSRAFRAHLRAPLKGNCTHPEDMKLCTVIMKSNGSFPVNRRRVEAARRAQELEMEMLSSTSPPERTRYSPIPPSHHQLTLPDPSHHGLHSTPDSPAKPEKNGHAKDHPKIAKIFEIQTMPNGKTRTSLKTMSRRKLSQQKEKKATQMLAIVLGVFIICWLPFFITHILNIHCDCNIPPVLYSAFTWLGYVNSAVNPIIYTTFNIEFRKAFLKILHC
Compound,Ki (D2R),Ki (5-HT2CR)
"O=C(NCCCCN1CCN(c2cccc(Cl)c2Cl)CC1)C1COC(c2ccccc2)(c2ccccc2)CO1 (stereo not drawn) [compound 6, N-(4-(4-(2,3-Dichlorophenyl)piperazin-1-yl)butyl)-5,5-diphenyl-1,4-dioxane-2-carboxamide]",28.7 ± 5.4 nM,90 ± 16 nM
"O=C(NCCCCN1CCN(c2cccc(Cl)c2Cl)CC1)C1COCC(c2ccccc2)(c2ccccc2)O1 (stereo not drawn) [compound 3, N-(4-(4-(2,3-Dichlorophenyl)piperazin-1-yl)butyl)-6,6-diphenyl-1,4-dioxane-2-carboxamide]",342 ± 105 nM,642 ± 80 nM
"O=C(NCCCCN1CCN(c2cccc(Cl)c2Cl)CC1)C1COc2ccccc2O1 (stereo not drawn) [compound 9, N-(4-(4-(2,3-Dichlorophenyl)piperazin-1-yl)butyl)-2,3-dihydrobenzo[b][1,4]dioxine-2-carboxamide]",46.4 ± 5.9 nM,97 ± 25 nM
